Measurements: ChEMBL document CHEMBL3739304, “Non-nucleoside anti-HBV agents: advances in structural optimization and mechanism of action investigations” (Medchemcomm, 2015)
One block for each molecule: values may come before it.

Experiments:
Hepatitis B virus [1] = test: Inhibition of HBV DNA replication in HepG2.2.15 cells; assay type: functional, organism-based
[2] = Selectivity index, ratio of cytotoxicity against human HepG2.2.15 cells to IC50 for HBV DNA replication in HepG2.2.15 cells; assay type: toxicity, cell-based; details: read-out: Selectivity Index
[3] = Cytotoxicity against human HepG2.2.15 cells assessed as cell viability; assay type: cell-based, HepG2 2.2.15; details: read-out: TC50 (the source's name)
Hepatitis B virus [4] = test: Inhibition of HBV antigen secretion in HepDE19 cell after 7 days by ELISA; assay type: functional, organism-based; details: HepDE19, 168 h
[5] = Cytotoxicity against human HepDE19 cells after 7 days by MTT assay; assay type: cell-based
Hepatitis B virus [6] = test: Inhibition of HBV in Huh7 cells by ELISA; assay type: functional, organism-based; details: Huh-7
[7] = Cytotoxicity against human HuH7 cells; assay type: cell-based, Huh-7
Hepatitis B virus [8] = test: Inhibition of HBV DNA replication in AML-12 cells after 48 hrs by dot blot analysis; assay type: functional, organism-based; details: AML12, 48 h
[9] = Cytotoxicity against mouse AML-12 cells after 48 hrs by MTT assay; assay type: cell-based
Hepatitis B virus [10] = test: Inhibition of HBV DNA replication in HepDES19 cells after 48 hrs by dot blot analysis; assay type: functional, organism-based; details: HepDES19, 48 h
[11] = Cytotoxicity against human HepDES19 cells after 48 hrs by MTT assay; assay type: cell-based
Hepatitis B virus [12] = test: Inhibition of HBV DNA replication; assay type: functional, organism-based
Hepatitis B virus [13] = test: Inhibition of HBV antigen secretion; assay type: functional, organism-based
Hepatitis B virus [14] = test: Inhibition of HBV antigen secretion in HepG2.2.15 cells; assay type: functional, organism-based
[15] = Selectivity index, ratio of cytotoxicity against human HepG2.2.15 cells to IC50 for HBV antigen secretion in HepG2.2.15 cells; assay type: toxicity, cell-based; details: read-out: Selectivity Index
[16] = Ratio of CC50 for human HepG2.2.15 cells to IC50 for HBV DNA replication in HepG2.2.15 cells; design: species or system HepG2 2.2.15
Hepatitis B virus [17] = test: Inhibition of HBV DNA replication in HepG2 cells by southern blot analysis; assay type: functional, organism-based
Hepatitis B virus [18] = test: Inhibition of HBV DNA replication in HepAD38 cells; assay type: functional, organism-based
[19] = Cytotoxicity against human HepAD38 cells; assay type: cell-based; details: read-out: TC50 (the source's name)
Hepatitis B virus [20] = test: Inhibition of HBV virions secretion; assay type: functional, organism-based

IC50 (Hepatitis B virus [1]): 36.8 µM
Compound: CCOC(=O)c1cc2cc(OC)c(O)c(CN3CCCC3)c2nc1CSc1ccccc1
selectivity ratio [2]: 2.8

IC50 (Hepatitis B virus [1]): 0.15 µM
Compound: CCOC(=O)C1=C(C)NC(c2ncccc2F)=NC1c1ccc(F)cc1Cl (stereo unspecified)
CC50 [3]: 50 µM

EC50 (Hepatitis B virus [4]): 0.35 µM
Compound: Cc1nc2cc(NC(=O)c3ccc(S(=O)(=O)N(C)Cc4ccccc4)cc3)ccc2s1
CC50 at 168 h [5]: > 2.57 µM

IC50 (Hepatitis B virus [1]): 1.7 µM
Compound: COc1cc2nc3c(cc2c(Cn2ccnc2C)c1O)CSc1cc(F)ccc1-3
selectivity ratio [2]: 60.3

EC50 (Hepatitis B virus [6]): 0.12 µM
Compound: Cc1cc(C)n2[nH]c(=S)nc2n1
CC50 [7]: > 50 µM

EC50 (Hepatitis B virus [4]): 4.55 µM
Compound: O=C(CN(c1cc(C(F)(F)F)ccc1Cl)S(=O)(=O)c1ccccc1)NCc1ccncc1
CC50 at 168 h [5]: > 50 µM

EC50 (Hepatitis B virus [8]): 0.3 µM
EC50 (Hepatitis B virus [10]): 0.1 µM
Compound: CCC(C)NS(=O)(=O)c1ccc(F)c(C(=O)NCc2ccc(F)c(F)c2)c1 (stereo unspecified)
CC50 at 48 h [9]: > 50 µM
CC50 at 48 h [11]: > 50 µM

IC50 (Hepatitis B virus [12]): 0.14 µM
Compound: CC(C)Cc1sc(-c2nccs2)nc1C(=O)NCc1ccc(F)cc1

IC50 (Hepatitis B virus [13]): 5 µM
IC50 (Hepatitis B virus [12]): 30 µM
Compound: CCCCC/N=C(\c1ccc(=O)n(CCCCC)c1)c1ccc(OC)cc1O

EC50 (Hepatitis B virus [6]): 5.4 µM
Compound: O=C1OC(OCc2ccccc2)=N/C1=C\c1ccccc1
CC50 [7]: > 50 µM

IC50 (Hepatitis B virus [1]): 2.6 µM
IC50 (Hepatitis B virus [14]): 14.2 µM
Compound: CCOC(=O)c1cc2cc(OC)c(O)c(CN3C=NCC3)c2nc1C[S+]([O-])c1ccc(F)c(F)c1 (stereo unspecified)
selectivity ratio [2]: 61.6
selectivity ratio [15]: 11.3

EC50 (Hepatitis B virus [8]): 0.39 µM
EC50 (Hepatitis B virus [10]): 0.14 µM
Compound: O=C(NCc1ccc(F)c(F)c1)c1cc(S(=O)(=O)NC2CCCC2)ccc1F
CC50 at 48 h [9]: > 50 µM
CC50 at 48 h [11]: > 50 µM

IC50 (Hepatitis B virus [1]): 1.1 µM
Compound: CN(C)C(=O)c1ccc2c(c1)nc(-c1nccs1)n2C
Ratio CC50/IC50 [16]: >90

IC50 (Hepatitis B virus [17]): 0.012 µM
Compound: CCOC(=O)C1=C(CN2CCOCC2)NC(c2nccs2)=NC1c1ccc(F)cc1Br (stereo unspecified)

EC50 (Hepatitis B virus [18]): 1.2 µM
EC90 (Hepatitis B virus [18]): 13 µM
Compound: O=C(N/C(C(=O)N1CCCCC1)=C(/Cl)c1ccccc1)c1ccccc1
CC50 [19]: > 81 µM

IC50 (Hepatitis B virus [1]): 0.03 µM
Compound: CCOC(=O)C1=C(C)NC(c2nccs2)=N[C@H]1c1ccc(F)cc1Cl
CC50 [3]: 25 µM

EC50 (Hepatitis B virus [8]): 1.7 µM
EC50 (Hepatitis B virus [10]): 1.6 µM
Compound: O=C(NCc1ccccc1)c1ccc(Cl)c(S(=O)(=O)N2CCCCCC2)c1
CC50 at 48 h [9]: > 50 µM
CC50 at 48 h [11]: > 50 µM

EC50 (Hepatitis B virus [20]): 0.6 µM
EC50 (Hepatitis B virus [13]): 1.5 µM
Compound: Clc1cc2nc(N3CCN(c4ccccn4)CC3)[nH]c2cc1Cl

EC50 (Hepatitis B virus [18]): 0.13 µM
EC90 (Hepatitis B virus [18]): 0.92 µM
Compound: COc1ccccc1/C(Br)=C(\NC(=O)c1ccc([N+](=O)[O-])cc1)C(=O)N1CCCCC1
CC50 [19]: > 61 µM
